According to patent US12480089B2, “Antiviral treatment comprising Blis containing probiotic products” (BLIS TECHNOLOGIES LIMITED, priority 2020, dated 2025):

What was measured:
Type in all cases: cell-based
RSV (A2 strain) = details: MA-104, DMEM, max CPE day 6
Influenza A virus H3N2 = experiment: Neutral red CPE assay, Influenza A in MDCK cells; details: strain samples: resuspension medium DMEM, time to produce antiviral activity 6
Method: The antiviral activity of S. salivarius sample preparations were evaluated against severe acute respiratory syndrome coronavirus 2 (SARS-CoV-2) and Influenza A virus H3N2 in neutral red (NR) assays to evaluate inhibition of viral-induced cytopathic effect (CPE).
Neutral red assay: Samples were received frozen on dry ice and stored at −20° C. upon arrival. All 10 samples were serially diluted in test medium using 4 1:2 dilutions so that the starting (high) test concentration was 50% sample. Each dilution was added to 5 wells of a 96-well plate with 80-90% confluent Vero 76 (SARS-CoV-2) or MDCK (Influenza) cells.
Three wells of each dilution were infected with virus, and two wells remained uninfected as toxicity controls. On each plate, six untreated wells were infected as virus controls, and six untreated wells were left uninfected to use as cell controls.
Viruses were diluted to a specific 50% cell culture infectious dose (CCID50) per mL to achieve the lowest possible multiplicity of infection (MOI) that would yield >80% cytopathic effect (CPE) within 3-5 days. […]
Supernatant dye was removed, wells rinsed with PBS, and the incorporated dye was extracted in 50:50 Sorensen citrate buffer/ethanol for >30 minutes and the optical density was read on a spectrophotometer at 540 nm. […]

[1] = system: influenza B (Brisbane/60/2008 strain); experiment: Neutral red CPE assay, influenza B in MDCK cells; details: DMEM + trypsin + EDTA, max CPE day 3
Method: K12 and M18 were tested for in vitro antiviral activity against RSV (A2 strain) and influenza B (Brisbane/60/2008 strain).
Samples were serially diluted using four 2-fold dilutions in media so that the starting (high) test concentration was 50%. Media for MDCK cells included DMEM+10 U/ml trypsin+1 ug/mL EDTA. Each dilution was added to 5 wells of a 96-well plate with 80-100% confluent cells. Three wells of each dilution were infected with virus, and two wells remained uninfected as toxicity controls. Six wells were infected and untreated as virus controls, and six wells were uninfected and untreated as cell controls. A positive control compound, ribavirin, was tested in parallel. Plates were incubated at 37±2° C., 5% CO2.
Once untreated virus control wells reached maximum CPE on the day indicated in the table below, plates were stained with neutral red dye for approximately 2 hours (±15 minutes). Supernatant dye was removed and wells rinsed with PBS, and the incorporated dye was extracted in 50:50 Sorensen citrate buffer/ethanol for >30 minutes and the optical density was read on a spectrophotometer at 540 nm.
The selective index (SI) is the CC50 divided by EC50.

[2] = system: SARS-CoV-2, USA-WA1/2020 strain

Structure (SMILES) | SI Index (RSV (A2 strain)) | SI Index (Influenza A virus H3N2) | SI Index [1] | Round 1 virus titer ([2]; 30-minute contact at room temperature, 90% preparation and 10% virus solution, virus control 4.2) [log 10 CCID50 per 0.1 mL] | Round 2 Virus titer ([2]; 30-minute contact at room temperature, 90% preparation and 10% virus stock, virus control 4.0) [log 10 CCID50 per 0.1 mL] | Log Reduction value ([2]; Round 2, compared to virus control)
NC(=O)c1ncn([C@@H]2O[C@H](CO)[C@@H](O)[C@H]2O)n1 [Ribavirin, ribavirin] | 14 | >590 | >320 | – | – | –
CCO [Ethanol] | – | – | – | 1.1 | <0.67 | 3.33
